From ChEMBL document CHEMBL1157122, “The contribution of a 2-amino group on receptor tyrosine kinase inhibition and antiangiogenic activity in 4-anilinosubstituted pyrrolo[2,3-d]pyrimidines” (Bioorg Med Chem Lett, 2010)

Assays:
[1] = molecular target: Platelet-derived growth factor receptor beta (Homo sapiens, UniProt P09619); experiment: Inhibition of PDGFRbeta
A-431 = experiment: cells; settings: Homo sapiens
[2] = molecular target: T1, Epidermal growth factor receptor (Homo sapiens, UniProt P00533); experiment: cell-based
[3] = molecular target: Vascular endothelial growth factor receptor 1 (Homo sapiens, UniProt P17948); experiment: cell-based
[4] = molecular target: T2, Vascular endothelial growth factor receptor 2 (Homo sapiens, UniProt P35968); experiment: cell-based
[5] = molecular target: T1, Epidermal growth factor receptor
[6] = molecular target: T2, Vascular endothelial growth factor receptor 2
[7] = tested on: chorioallantoic membrane (Gallus gallus); experiment: cells; settings: Homo sapiens, A-431

Chain of Platelet-derived growth factor receptor beta (P09619 whole entry): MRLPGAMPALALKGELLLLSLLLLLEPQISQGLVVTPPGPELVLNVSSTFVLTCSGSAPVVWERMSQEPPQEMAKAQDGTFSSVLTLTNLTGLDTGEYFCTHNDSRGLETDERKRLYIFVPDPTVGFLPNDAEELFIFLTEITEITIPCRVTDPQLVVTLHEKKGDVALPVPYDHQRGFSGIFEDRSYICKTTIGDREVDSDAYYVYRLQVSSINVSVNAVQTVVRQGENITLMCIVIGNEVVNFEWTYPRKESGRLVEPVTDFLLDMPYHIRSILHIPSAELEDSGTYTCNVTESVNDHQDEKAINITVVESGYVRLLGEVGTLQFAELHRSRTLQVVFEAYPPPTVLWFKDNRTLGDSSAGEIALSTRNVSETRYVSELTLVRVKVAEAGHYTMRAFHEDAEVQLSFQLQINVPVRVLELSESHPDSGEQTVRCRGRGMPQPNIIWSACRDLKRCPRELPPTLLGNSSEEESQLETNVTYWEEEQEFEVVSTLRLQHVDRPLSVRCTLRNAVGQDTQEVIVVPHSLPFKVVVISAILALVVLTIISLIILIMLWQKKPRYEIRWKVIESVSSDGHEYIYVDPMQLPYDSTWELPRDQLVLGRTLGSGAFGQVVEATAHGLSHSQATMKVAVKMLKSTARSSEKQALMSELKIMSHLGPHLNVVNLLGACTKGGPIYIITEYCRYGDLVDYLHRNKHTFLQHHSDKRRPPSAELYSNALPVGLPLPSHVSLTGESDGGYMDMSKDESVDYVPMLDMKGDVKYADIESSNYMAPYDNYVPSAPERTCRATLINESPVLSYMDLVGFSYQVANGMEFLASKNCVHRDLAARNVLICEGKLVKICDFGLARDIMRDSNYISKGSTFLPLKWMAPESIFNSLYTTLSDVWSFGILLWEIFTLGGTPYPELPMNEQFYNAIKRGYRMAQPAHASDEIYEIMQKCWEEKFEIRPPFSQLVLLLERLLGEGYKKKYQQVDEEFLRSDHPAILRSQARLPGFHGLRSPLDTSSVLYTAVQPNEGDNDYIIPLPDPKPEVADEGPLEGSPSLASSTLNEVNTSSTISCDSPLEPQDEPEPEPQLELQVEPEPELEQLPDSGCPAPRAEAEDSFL
Chain of Vascular endothelial growth factor receptor 1 (P17948 whole entry): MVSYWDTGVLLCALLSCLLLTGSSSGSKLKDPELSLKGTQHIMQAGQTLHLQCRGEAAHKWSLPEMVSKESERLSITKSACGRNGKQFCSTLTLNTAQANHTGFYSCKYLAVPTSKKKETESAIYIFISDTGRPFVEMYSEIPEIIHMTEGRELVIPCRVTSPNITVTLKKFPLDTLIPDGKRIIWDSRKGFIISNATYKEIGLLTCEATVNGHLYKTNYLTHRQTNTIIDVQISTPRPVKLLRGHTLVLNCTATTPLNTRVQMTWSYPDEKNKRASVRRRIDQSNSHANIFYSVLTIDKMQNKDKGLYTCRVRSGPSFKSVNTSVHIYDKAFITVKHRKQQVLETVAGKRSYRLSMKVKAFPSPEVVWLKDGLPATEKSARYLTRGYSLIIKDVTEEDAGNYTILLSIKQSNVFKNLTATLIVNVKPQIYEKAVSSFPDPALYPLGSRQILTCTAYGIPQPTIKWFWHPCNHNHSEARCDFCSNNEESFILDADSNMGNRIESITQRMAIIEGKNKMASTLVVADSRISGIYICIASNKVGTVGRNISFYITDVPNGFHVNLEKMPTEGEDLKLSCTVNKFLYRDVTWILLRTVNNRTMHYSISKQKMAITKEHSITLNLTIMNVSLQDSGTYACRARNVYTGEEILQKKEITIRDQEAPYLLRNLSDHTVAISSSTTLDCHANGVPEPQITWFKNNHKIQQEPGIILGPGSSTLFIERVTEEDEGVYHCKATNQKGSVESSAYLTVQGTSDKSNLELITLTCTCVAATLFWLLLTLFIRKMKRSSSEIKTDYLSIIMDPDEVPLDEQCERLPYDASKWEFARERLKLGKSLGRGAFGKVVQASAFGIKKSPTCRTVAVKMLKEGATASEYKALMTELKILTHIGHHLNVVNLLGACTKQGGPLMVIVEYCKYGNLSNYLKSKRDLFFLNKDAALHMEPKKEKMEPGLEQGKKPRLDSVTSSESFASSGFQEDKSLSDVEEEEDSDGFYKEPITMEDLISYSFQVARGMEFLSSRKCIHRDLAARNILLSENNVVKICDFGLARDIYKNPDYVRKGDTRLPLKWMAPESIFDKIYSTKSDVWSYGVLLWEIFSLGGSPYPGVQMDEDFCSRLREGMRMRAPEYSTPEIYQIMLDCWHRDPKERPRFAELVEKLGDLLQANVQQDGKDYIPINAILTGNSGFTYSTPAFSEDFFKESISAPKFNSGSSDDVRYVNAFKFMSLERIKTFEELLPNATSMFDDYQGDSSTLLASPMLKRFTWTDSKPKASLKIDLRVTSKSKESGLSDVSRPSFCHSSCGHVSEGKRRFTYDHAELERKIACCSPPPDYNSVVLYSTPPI
T1 sequence (P00533 whole entry): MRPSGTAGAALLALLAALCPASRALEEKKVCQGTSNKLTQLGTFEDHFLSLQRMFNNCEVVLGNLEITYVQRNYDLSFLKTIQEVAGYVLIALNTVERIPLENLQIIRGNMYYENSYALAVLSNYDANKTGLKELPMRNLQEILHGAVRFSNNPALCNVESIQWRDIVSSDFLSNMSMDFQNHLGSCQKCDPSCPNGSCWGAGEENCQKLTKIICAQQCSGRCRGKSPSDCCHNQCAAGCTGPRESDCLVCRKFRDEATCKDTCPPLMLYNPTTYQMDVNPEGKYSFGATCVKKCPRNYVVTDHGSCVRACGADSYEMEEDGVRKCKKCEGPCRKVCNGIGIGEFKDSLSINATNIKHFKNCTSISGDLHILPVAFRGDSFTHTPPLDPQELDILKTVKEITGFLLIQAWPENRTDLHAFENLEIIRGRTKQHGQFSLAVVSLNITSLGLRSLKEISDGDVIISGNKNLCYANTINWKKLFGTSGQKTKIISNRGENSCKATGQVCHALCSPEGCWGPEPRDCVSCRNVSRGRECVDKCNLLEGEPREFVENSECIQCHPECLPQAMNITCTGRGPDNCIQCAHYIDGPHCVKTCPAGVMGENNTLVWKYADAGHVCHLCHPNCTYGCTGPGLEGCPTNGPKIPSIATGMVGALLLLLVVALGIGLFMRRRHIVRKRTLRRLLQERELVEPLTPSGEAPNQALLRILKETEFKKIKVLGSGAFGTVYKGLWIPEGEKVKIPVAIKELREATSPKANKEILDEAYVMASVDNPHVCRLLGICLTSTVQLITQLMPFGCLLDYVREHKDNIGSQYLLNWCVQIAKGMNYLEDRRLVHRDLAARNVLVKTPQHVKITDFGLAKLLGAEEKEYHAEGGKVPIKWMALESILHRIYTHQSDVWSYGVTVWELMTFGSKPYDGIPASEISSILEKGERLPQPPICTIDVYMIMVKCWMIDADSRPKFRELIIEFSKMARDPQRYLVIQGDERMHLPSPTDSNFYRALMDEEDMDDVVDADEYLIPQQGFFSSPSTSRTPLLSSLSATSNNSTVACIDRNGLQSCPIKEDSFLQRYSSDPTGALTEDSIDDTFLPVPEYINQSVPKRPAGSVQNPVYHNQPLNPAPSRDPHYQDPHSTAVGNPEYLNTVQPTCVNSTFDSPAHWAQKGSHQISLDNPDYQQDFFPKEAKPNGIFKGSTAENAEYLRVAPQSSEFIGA
T2 sequence (P35968 whole entry): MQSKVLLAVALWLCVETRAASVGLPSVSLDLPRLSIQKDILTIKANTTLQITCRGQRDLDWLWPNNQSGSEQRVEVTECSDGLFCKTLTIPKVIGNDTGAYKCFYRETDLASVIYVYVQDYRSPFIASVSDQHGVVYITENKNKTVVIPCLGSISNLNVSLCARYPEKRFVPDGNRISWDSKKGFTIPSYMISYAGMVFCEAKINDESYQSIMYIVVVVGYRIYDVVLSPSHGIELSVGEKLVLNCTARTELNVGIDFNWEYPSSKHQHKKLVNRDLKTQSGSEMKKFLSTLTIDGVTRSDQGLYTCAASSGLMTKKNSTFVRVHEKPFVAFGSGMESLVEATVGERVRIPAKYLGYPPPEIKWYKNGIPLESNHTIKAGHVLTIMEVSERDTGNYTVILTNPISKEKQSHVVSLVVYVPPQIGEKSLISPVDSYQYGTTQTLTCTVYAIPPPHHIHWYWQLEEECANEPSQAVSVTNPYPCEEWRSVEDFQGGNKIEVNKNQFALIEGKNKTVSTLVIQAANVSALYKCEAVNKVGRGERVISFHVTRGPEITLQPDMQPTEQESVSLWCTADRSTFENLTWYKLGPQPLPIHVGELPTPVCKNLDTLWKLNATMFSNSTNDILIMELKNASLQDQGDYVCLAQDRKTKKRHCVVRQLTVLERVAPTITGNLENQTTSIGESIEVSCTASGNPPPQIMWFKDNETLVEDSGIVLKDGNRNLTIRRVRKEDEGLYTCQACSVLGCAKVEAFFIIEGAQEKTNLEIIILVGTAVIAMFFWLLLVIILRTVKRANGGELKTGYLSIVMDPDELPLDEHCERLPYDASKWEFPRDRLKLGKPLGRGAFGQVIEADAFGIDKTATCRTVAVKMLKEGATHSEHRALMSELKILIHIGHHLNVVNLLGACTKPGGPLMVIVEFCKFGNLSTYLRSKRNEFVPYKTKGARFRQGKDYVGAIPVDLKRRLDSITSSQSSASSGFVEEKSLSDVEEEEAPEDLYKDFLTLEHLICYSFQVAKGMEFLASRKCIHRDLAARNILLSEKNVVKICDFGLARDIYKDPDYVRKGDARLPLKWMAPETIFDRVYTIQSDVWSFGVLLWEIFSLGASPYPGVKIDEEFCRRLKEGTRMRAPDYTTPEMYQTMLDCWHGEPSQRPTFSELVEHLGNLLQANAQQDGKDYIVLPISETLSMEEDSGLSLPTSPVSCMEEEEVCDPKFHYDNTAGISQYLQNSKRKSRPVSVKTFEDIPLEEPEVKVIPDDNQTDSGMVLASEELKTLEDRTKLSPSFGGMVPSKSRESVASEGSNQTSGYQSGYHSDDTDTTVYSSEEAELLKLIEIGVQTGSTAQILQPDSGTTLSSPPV

Compound | IC50 [1] | IC50 (A-431) | IC50 [2] | IC50 [3] | IC50 [4] | IC50 [5] | IC50 [6] | IC50 [7]
Fc1cc(Cl)ccc1Nc1ncnc2[nH]c(CCc3ccccc3)cc12 | > 500 µM |  | > 200 µM | > 200 µM | 40.5 µM |  |  | 
Fc1ccc(Nc2ncnc3[nH]c(CCc4ccccc4)cc23)cc1Br | 192 µM | > 500 µM | > 200 µM | > 200 µM | 25.2 µM |  |  | 
C#Cc1cccc(Nc2ncnc3[nH]c(CCc4ccccc4)cc23)c1 | > 500 µM | > 500 µM | > 200 µM | 142 µM | 49.4 µM |  |  | 
c1ccc(CCc2cc3c(Nc4ccc5[nH]ccc5c4)ncnc3[nH]2)cc1 | 104 µM |  | 56.1 µM | 224 µM | 31.6 µM |  |  | 
Nc1nc(Nc2ccc(F)c(Br)c2)c2cc(CCc3ccccc3)[nH]c2n1 |  |  |  |  |  | 22.8 µM | 132 µM | 
Nc1nc(Nc2cccc(Br)c2)c2cc(CCc3ccccc3)[nH]c2n1 |  |  |  |  |  |  |  | 19.5 µM

Further lines, with some results ahead:

IC50 [1] | IC50 (A-431) | IC50 [2] | IC50 [3] | IC50 [4] | IC50 [5] | IC50 [6] | Compound | IC50 [7]
8.5 µM | > 500 µM | > 200 µM | 129 µM | 112 µM |  |  | Brc1cccc(Nc2ncnc3[nH]c(CCc4ccccc4)cc23)c1 | 
> 500 µM | > 500 µM | > 200 µM | 164 µM | 57.5 µM |  |  | Fc1ccc(Nc2ncnc3[nH]c(CCc4ccccc4)cc23)cc1C(F)(F)F | 
> 500 µM | > 500 µM | > 200 µM | > 200 µM | 22.1 µM |  |  | FC(F)(F)c1cccc(Nc2ncnc3[nH]c(CCc4ccccc4)cc23)c1 | 
